13 compounds from patent US9546150B2, “Substituted quinazolin-4-ones for inhibiting ubiquitin specific protease 7” (HYBRIGENICS SA, priority 2011, dated 2017) can be followed below.

The term IC50 denotes the concentration that gives 50% inhibition.

SMILES strings stand for the structures. A value given as a limit tells only on which side of the number the result lay.

For one assay, the target named is T1, USP8 (Homo sapiens, UniProt P40818).
T1 sequence (P40818 1-1118): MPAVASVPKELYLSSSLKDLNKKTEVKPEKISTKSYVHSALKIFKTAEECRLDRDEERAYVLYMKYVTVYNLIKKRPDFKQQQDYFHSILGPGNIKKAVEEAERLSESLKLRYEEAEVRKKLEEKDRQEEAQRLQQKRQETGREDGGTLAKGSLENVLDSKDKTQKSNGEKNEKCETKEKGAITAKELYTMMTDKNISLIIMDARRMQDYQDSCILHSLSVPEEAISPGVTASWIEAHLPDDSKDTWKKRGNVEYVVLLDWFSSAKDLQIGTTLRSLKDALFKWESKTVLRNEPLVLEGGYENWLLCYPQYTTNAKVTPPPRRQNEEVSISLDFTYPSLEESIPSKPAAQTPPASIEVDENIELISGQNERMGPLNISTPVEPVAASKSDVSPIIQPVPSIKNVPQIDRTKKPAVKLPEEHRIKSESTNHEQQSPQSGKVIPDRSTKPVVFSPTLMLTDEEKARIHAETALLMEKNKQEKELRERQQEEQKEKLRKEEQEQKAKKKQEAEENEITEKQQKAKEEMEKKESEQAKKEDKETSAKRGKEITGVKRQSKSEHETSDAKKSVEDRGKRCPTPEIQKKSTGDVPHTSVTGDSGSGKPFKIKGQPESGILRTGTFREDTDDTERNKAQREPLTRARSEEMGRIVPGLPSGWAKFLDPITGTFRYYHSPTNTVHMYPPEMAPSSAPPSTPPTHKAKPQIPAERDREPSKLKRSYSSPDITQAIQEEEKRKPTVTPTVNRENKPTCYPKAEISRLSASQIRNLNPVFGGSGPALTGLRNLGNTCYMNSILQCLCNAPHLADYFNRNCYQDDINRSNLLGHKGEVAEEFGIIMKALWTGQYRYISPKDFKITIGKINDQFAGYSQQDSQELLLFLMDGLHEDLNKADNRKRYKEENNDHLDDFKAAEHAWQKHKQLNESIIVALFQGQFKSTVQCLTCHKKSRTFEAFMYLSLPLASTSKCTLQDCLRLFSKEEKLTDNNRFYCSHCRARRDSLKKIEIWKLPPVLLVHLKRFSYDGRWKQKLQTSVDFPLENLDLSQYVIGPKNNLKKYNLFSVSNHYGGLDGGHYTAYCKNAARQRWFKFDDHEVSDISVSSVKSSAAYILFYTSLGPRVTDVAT
As to the kind of experiment: USP8 activity assay, Ub-AMC substrate. The class given is biochemical. The arrangement: His tag (pFastBac-HT vector); made in house; host or cells: Sf9 or High Five insect cells, baculovirus. Particulars: UbAMC substrate 300 nM, USP8 1.36 nM. The protocol: USP8 was diluted in USP buffer (50 mM Tris HCl; 0.5 mM EDTA; 5 mM DTT; 0.01% Triton X-100; Bovine Serum Albumin 0.05 mg·ml^−1 pH8.8). Compounds stocks (100 mM) were stored at −20° C. in DMSO.
Reactions were performed as duplicates in Black 384 well plates (small volume microplates; Greiner; 10 μl final reaction volume). The substrate concentration for USP8 was 300 nM Ub-AMC (Boston Biochem). […] The concentrations were determined in order to perform specificity assays under initial velocities at fixed substrate concentration. Compounds were pre-incubated with enzymes for 30 minutes at 25° C. Reactions were initiated by addition of substrate to the plates containing the enzymes (+/− compounds) diluted in assay buffer. Reactions were incubated for 60 minutes at 37° C. Reactions were stopped by adding acetic acid (100 mM final). Readings were performed on a Pherastar Fluorescent Reader (BMG). λ Emission 380 nm: λ Excitation=460 nm.

In another assay the target is T2, UCH-L3 (Homo sapiens, UniProt P15374).
T2 sequence (P15374 1-230): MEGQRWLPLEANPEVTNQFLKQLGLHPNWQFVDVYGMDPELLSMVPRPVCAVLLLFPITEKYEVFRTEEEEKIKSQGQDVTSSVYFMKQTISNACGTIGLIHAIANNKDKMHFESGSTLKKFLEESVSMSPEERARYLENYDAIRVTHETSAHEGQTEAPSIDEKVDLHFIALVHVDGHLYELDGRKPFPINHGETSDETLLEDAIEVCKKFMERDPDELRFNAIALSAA
As to the kind of experiment: UCH-L3 activity assay, Ub-AMC substrate. The class given is biochemical. The settings on record: UbAMC substrate 300 nM, UCH-L3 13 pM. As for the experimental part:
UCH-L3 was diluted in USP buffer (50 mM Tris HCl; 0.5 mM EDTA; 5 mM DTT; 0.01% Triton X-100; Bovine Serum Albumin 0.05 mg·ml^−1 pH7.6). Compounds stocks (100 mM) were stored at −20° C. in DMSO. Compounds were tested at different concentrations: from 200 μM to 91 nM.
Reactions were performed as duplicates in Black 384 well plates (small volume microplates; Greiner; 10 μl final reaction volume). The substrate concentration for UCH-L3 was 300 nM Ub-AMC (Boston Biochem). The concentration of the enzyme (UCH-L3) in specificity assays was 13 pM. The concentrations were determined in order to perform specificity assays under initial velocities at fixed substrate concentration. Compounds were pre-incubated with enzymes for 30 minutes at 25° C. Reactions were initiated by addition of substrate to the plates containing the enzymes (+/− compounds) diluted in assay buffer. Reactions were incubated for 60 minutes at 37° C. Reactions were stopped by adding acetic acid (100 mM final). Readings were performed on a Pherastar Fluorescent Reader (BMG). λ Emission 380 nm; λ Excitation=460 nm.

As to `CC(Cc1cccs1)C(=O)N1CCC(O)(Cn2cnc3cc(Cl)ccc3c2=O)CC1` (stereo not shown) [Example 11, 7-chloro-3-({4-hydroxy-1-[2-methyl-3-(thiophen-2-yl)propanoyl]piperidin-4-yl}methyl)-3,4-dihydroquinazolin-4-one], the IC50 on USP8 and against UCH-L3 was above 200 µM in each case.
Turning to `CCC(CC)C(=O)N1CCC(O)(Cn2cnc3cc(Cl)ccc3c2=O)CC1` [Example 9, 7-chloro-3-{[1-(2-ethylbutanoyl)-4-hydroxypiperidin-4-yl]methyl}-3,4-dihydroquinazolin-4-one], the half-inhibitory concentration (IC50) against USP8 and against UCH-L3 was above 200 µM each time.
With `O=C(CCc1cccs1)N1CCC(O)(Cn2cnc3ccccc3c2=O)CC1` [Example 12, 3-({4-hydroxy-1-[3-(thiophen-2-yl)propanoyl]piperidin-4-yl}methyl)-3,4-dihydroquinazolin-4-one], the 50% inhibitory concentration (IC50) at USP8 and against UCH-L3 was above 200 µM each time.
In the case of `COc1cc2ncn(CC3(O)CCN(C(=O)C(C)C)CC3)c(=O)c2cc1OC` [Example 7, 3-{[4-hydroxy-1-(2-methylpropanoyl)piperidin-4-yl]methyl}-6,7-dimethoxy-3,4-dihydroquinazolin-4-one], the IC50 against USP8 and against UCH-L3 was above 200 µM throughout.
At UCH-L3, `O=C(CCc1ccccc1)N1CCC(O)(Cn2cnc3cc(Cl)ccc3c2=O)CC1` [Example 2, 7-chloro-3-{[4-hydroxy-1-(3-phenylpropanoyl)piperidin-4-yl]methyl}-3,4-dihydroquinazolin-4-one] displayed a half-maximal inhibitory concentration (IC50) above 200 µM.
`O=C(CCC1CCCC1)N1CCC(O)(Cn2cnc3cc(Cl)ccc3c2=O)CC1` [Example 4, 7-chloro-3-{[1-(3-cyclopentylpropanoyl)-4-hydroxypiperidin-4-yl]methyl}-3,4-dihydroquinazolin-4-one]: the 50% inhibitory concentration (IC50) on USP8 and against UCH-L3 was above 200 µM each time.
For the compound `CC(Cc1ccccc1)C(=O)N1CCC(O)(Cn2cnc3cc(Cl)ccc3c2=O)CC1` (stereo not shown) [Example 14, 3-{[1-(2-benzylpropanoyl)-4-hydroxypiperidin-4-yl]methyl}-7-chloro-3,4-dihydroquinazolin-4-one], the IC50 against USP8 and at UCH-L3 was above 200 µM in each case.
In the case of `CC(C)C(=O)N1CCC(O)(Cn2cnc3ccccc3c2=O)CC1` [Example 6, 3-{[4-hydroxy-1-(2-methylpropanoyl)piperidin-4-yl]methyl}-3,4-dihydroquinazolin-4-one], the IC50 against USP8 and against UCH-L3 was above 200 µM in each case.
As to `O=C(CCc1ccccc1)N1CCC(O)(Cn2cnc3ccccc3c2=O)CC1` [Example 1, 3-{[4-hydroxy-1-(3-phenylpropanoyl)piperidin-4-yl]methyl}-3,4-dihydroquinazolin-4-one], the IC50 on USP8 and at UCH-L3 was above 200 µM each time.
As for `CC(Cc1ccccc1)C(=O)N1CCC(O)(Cn2cnc3ccccc3c2=O)CC1` (stereo not shown) [Example 13, 3-{[1-(2-benzylpropanoyl)-4-hydroxypiperidin-4-yl]methyl}-3,4-dihydroquinazolin-4-one], the IC50 at USP8 and at UCH-L3 was above 200 µM in each case.
Consider `CC(Cc1cccs1)C(=O)N1CCC(O)(Cn2cnc3ccccc3c2=O)CC1` (stereo not shown) [Example 5, 3-({4-hydroxy-1-[2-methyl-3-(thiophen-2-yl)propanoyl]piperidin-4-yl}methyl)-3,4-dihydroquinazolin-4-one], for which the concentration for half-maximal inhibition (IC50) against USP8 and against UCH-L3 was above 200 µM throughout.
Consider `O=C(CCC1CCCC1)N1CCC(O)(Cn2cnc3ccccc3c2=O)CC1` [Example 3, 3-{[1-(3-cyclopentylpropanoyl)-4-hydroxypiperidin-4-yl]methyl}-3,4-dihydroquinazolin-4-one], for which the IC50 against USP8 and against UCH-L3 was above 200 µM throughout.
In the case of `COc1ccccc1CCC(=O)N1CCC(O)(Cn2cnc3ccccc3c2=O)CC1` [Example 10, 3-({4-hydroxy-1-[3-(2-methoxyphenyl)propanoyl]piperidin-4-yl}methyl)-3,4-dihydroquinazolin-4-one], the IC50 on USP8 and against UCH-L3 was above 200 µM in each case.
